Test results as given in article PMC7339578, “Multiple circulating alkaloids and saponins from intravenous Kang-Ai injection inhibit human cytochrome P450 and UDP-glucuronosyltransferase isozymes: potential drug–drug interactions” (Chinese Medicine, 2020).
Values joined by “and” are separate entries in the source; they are usually repeats but may differ in a detail not shown here. Equal entries are not always repeated. Where two headings read alike, the source gives them in different places.

Columns and labels:
[1] = Plasma pharmacokinetics in rats after a 30-min intravenous infusion of Kang-Ai injection; type: in vivo, Sprague–Dawley rats; settings: male, Sprague-Dawley, in vivo; for clearance / Vd: rat; for clearance: read-out: CLtot, p (converted)
Method: Specific pathogen free (SPF) grade male Sprague–Dawley rats (250 ± 20) g were provided by the Experimental Animal Center of Zhengzhou University (Zhengzhou, China). These rats were kept in a designated animal room at constant temperature (22 ± 2) °C and humidity (50 ± 20) % with 12 h of light/dark per day and free access to water and food. All protocols of animal experiments were approved in accordance with the Regulations of Experimental Animal Administration issued by the Ethics Review Committee for Animal Experimentation of Jinan University (Ethical Review NO. 20190301010). Prior to the experiments, the rats were fasted for 12 h but with free access to water. After study use, the rats were euthanized with CO2 gas.
The rats in this study all received a single 30-min intravenous infusion of Kang-Ai injection via the tail veins using TYD01-02 infusion pumps (Lead Fluid, Baoding, China). The dose was derived from the label daily dose of Kang-Ai injection (60 mL/person, once daily) according to dose normalization by body surface area. For plasma pharmacokinetic studies, the rats were randomly received a single intravenous 30 min-bolus dose at 6 mL/kg. Blood samples (100 μL) were collected from the rats’ external jugular veins into heparinized polypropylene tubes at 5, 15, 30, 45 min, and 1, 1.5, 2, 3, 4, 6, 8, 12 h. After gently shaking for 10 s, the blood samples were centrifuged at 13000 g for 10 min to yield plasma samples, which were kept frozen at − 80 °C until analysis.
(§1) Pharmacokinetic parameters were estimated by non-compartmental analysis using WinNonlin 6.3 software (Pharsight, NC, US). Data are presented as the mean ± SD (n = 3). The area under the concentration–time curve up to the last measured point in time (AUC0-t) was calculated using the trapezoidal rule. The total plasma clearance (CLtot, p) was calculated by dividing the compound dose by the AUC0-∞, and the distribution volume at steady state (VSS) was estimated by multiplying the CLtot, p by the mean residence time (MRT). The renal excretory clearance (CLR) and hepatobiliary (CLB) was determined by dividing the cumulative amount excreted into urine (Cum.Ae-U) and bile (Cum.Ae-B) by the plasma AUC0-∞, respectively. The fractions of dose excreted into urine (fe-U) and the fractions of dose excreted into bile (fe-B) were established using the relationship Cum.Ae-U/Dose and Cum.Ae-B/Dose, respectively. Mean differences between treatment and control groups were analyzed by two-tailed unpaired Student’s t test by Graphpad Prism V5 software (SanDiego, CA). The level of significance was set at p < 0.05 (∗), p < 0.01 (∗∗) or p < 0.001 (∗∗∗).

[2] = Urinary (renal) excretion in rats after a 30-min infusion of Kang-Ai injection; type: in vivo, Sprague–Dawley rats; settings: Kang-Ai injection 6 mL/kg iv
Method: (§2) For urine sampling, the rats were housed singly in metabolic cages. And then, the urine samples were collected at 0–4, 4–8 and 8–12 h after starting infusion and were weighed. Likewise, bile samples were also collected at 0–3, 3–6, 6–9 and 9–12 h after starting infusion and were weighed. The urine and bile collection tubes were all frozen at − 80 °C.
as §1

[3] = Biliary (hepatobiliary) excretion in rats after a 30-min infusion of Kang-Ai injection; type: in vivo, Sprague–Dawley rats; settings: rat bile 0–12 h; Kang-Ai injection 6 mL/kg iv
Method: as §2, §1

[4] = Protein binding assay (equilibrium dialysis); type: in vitro ADME, rat; settings: rat plasma; equilibrium dialysis 24 h, 37 °C; 2 μmol/L alkaloids, 4 μmol/L saponins; read-out: fu-plasma (unbound fraction)
Method: Binding of circulating alkaloids and saponins to rat plasma was measured by equilibrium dialysis using Spectra/Por 2 dialysis membranes (molecular weight cutoff, 12–14 kDa; Rancho Dominguez, CA, USA) as described. After equilibrating for 24 h at 55 rpm and 37 °C, the dialysate and the plasma were sampled for analysis. […] The concentrations of tested matrine, oxysophocarpine and oxymatrine were 2 μmol/L, while those of astragaloside IV, III, and ginsenosides Rh1, Rg2, Rg1, Rf, Re, Rd, Rc, Rb1, Rb2, notoginsenosides R1, R2, were 4 μmol/L. The unbound fraction (fu-plasma) in rat plasma was calculated as follow: fu-plasma = Cd/Cp × 100%, where the Cd and Cp values were the concentrations of each analyte in the dialysate sample and in the post-dialysis plasma sample, respectively.

[5] = Stability tests of analytes in rat plasma QC samples; type: in vitro ADME; settings: rat plasma
Method: […] The dilution integrity was investigated by analyzing six replicate samples with each analyte, and each analyte were diluted 10-fold with blank rat matrix. Furthermore, the diluted samples were analyzed using freshly prepared calibration curve to calculate RE and RSD, which should be no more than ± 15% as criterion.

O=C1C=CC[C@@H]2[C@H]3CCC[N+]4([O-])CCC[C@@H](CN12)[C@@H]34 (some centres unmarked) [Compound A2, Oxysophocarpine]
Cmax ([1]; rat plasma, 30-min iv infusion of Kang-Ai injection 6 mL/kg, read-out: Cmax): 170 ± 27.4 nM | half-life ([1]; rat plasma, 30-min iv infusion of Kang-Ai injection 6 mL/kg, read-out: t1/2 (converted)): 1.78 ± 1.55 h | clearance ([1]; 30-min iv infusion of Kang-Ai injection 6 mL/kg, Table 1 unit): 0.205 mL/min | Vd ([1]; 30-min iv infusion of Kang-Ai injection 6 mL/kg, Table 1 unit, read-out: VSS): 0.0252 ± 0.0148 L | clearance ([1]; Kang-Ai injection 6 mL/kg iv): 0.205 mL/min/kg | Vd ([1]; Kang-Ai injection 6 mL/kg iv, read-out: VSS (Vd)): 0.0252 L/kg | CL renal ([2]; male, Sprague-Dawley, in vivo, rat, read-out: CLR (renal excretory clearance) (converted)): 0.0792 mL/min | fe-U,0–12h (fraction of dose excreted into urine) ([2]; rat urine 0–12 h): 38.60% and 38.60 ± 11.22% | fraction of dose excreted unchanged via renal plus hepatobiliary excretion (sum of fe-U and fe-B) ([2]; rat urine + bile, 0–12 h): exceeded 90% | fe-B,0–12h (fraction of dose excreted into bile) [3]: 51.92% and 51.92 ± 8.98% | fraction unbound at 24 h [4]: 0.912 ± 0.0495 | At -80 °C for 48 h, Mean±SD ([5]; nominal conc. 20 nM): 21.90 ± 0.32 nM | At -80 °C for 48 h, RE ([5]; nominal conc. 20 nM): 10.73% | Extracted samples at 8 °C for 18 h, Mean±SD ([5]; nominal conc. 20 nM): 22.58 ± 0.11 nM | Extracted samples at 8 °C for 18 h, RE ([5]; nominal conc. 20 nM): 13.22% | Short-term stability at room temperature for 6 h, Mean±SD ([5]; nominal conc. 20 nM): 20.94 ± 1.33 nM | Short-term stability at room temperature for 6 h, RE ([5]; nominal conc. 20 nM): 12.22% | Three freeze-thaw cycles (-80 °C ↔ 23 °C), Mean±SD ([5]; nominal conc. 20 nM): 22.63 ± 0.15 nM | Three freeze-thaw cycles (-80 °C ↔ 23 °C), RE ([5]; nominal conc. 20 nM): 13.81% | At -80 °C for 48 h, Mean±SD ([5]; nominal conc. 100 nM): 112.64 ± 0.85 nM | At -80 °C for 48 h, RE ([5]; nominal conc. 100 nM): 13.54% | Extracted samples at 8 °C for 18 h, Mean±SD ([5]; nominal conc. 100 nM): 108.59 ± 6.59 nM | Extracted samples at 8 °C for 18 h, RE ([5]; nominal conc. 100 nM): 14.25% | Short-term stability at room temperature for 6 h, Mean±SD ([5]; nominal conc. 100 nM): 103.12 ± 8.16 nM | Short-term stability at room temperature for 6 h, RE ([5]; nominal conc. 100 nM): 12.17% | Three freeze-thaw cycles (-80 °C ↔ 23 °C), Mean±SD ([5]; nominal conc. 100 nM): 103.40 ± 9.41 nM | Three freeze-thaw cycles (-80 °C ↔ 23 °C), RE ([5]; nominal conc. 100 nM): 12.06% | At -80 °C for 48 h, Mean±SD ([5]; nominal conc. 400 nM): 437.15 ± 14.08 nM | At -80 °C for 48 h, RE ([5]; nominal conc. 400 nM): 11.61% | Extracted samples at 8 °C for 18 h, Mean±SD ([5]; nominal conc. 400 nM): 432.22 ± 7.29 nM | Extracted samples at 8 °C for 18 h, RE ([5]; nominal conc. 400 nM): 9.98% | Short-term stability at room temperature for 6 h, Mean±SD ([5]; nominal conc. 400 nM): 439.31 ± 14.14 nM | Short-term stability at room temperature for 6 h, RE ([5]; nominal conc. 400 nM): 12.94% | Three freeze-thaw cycles (-80 °C ↔ 23 °C), Mean±SD ([5]; nominal conc. 400 nM): 418.53 ± 37.48 nM | Three freeze-thaw cycles (-80 °C ↔ 23 °C), RE ([5]; nominal conc. 400 nM): 14.91%
